Reference: article PMC7827648 (Molecules, 2021)
Several values for one entry are separate records, joined by “and”; a condition that tells them apart may be missing. Identical values can stand only once.

Tests used:
[1] = in vitro; details: human
[2] = molecular target: human acetylcholinesterase (AChE) (Homo sapiens, UniProt P22303); assay: biochemical; details: for inhibition at 10 µM: mean ± SD (n = 3), read-out: % inhibition hAChE; for IC50: human recombinant AChE, pH 8.0, mean ± SD (n = 3), read-out: IC50 hAChE
Procedure: (§3) The ChE inhibition assay was carried out using the Ellman’s spectrophotometric method [23], as applied to the 96-well plate technique [24] on a Tecan Infinite M1000 Pro instrument (Cernusco s.N., Italy).

[3] = molecular target: T1, β-amyloid (Aβ)1–40 self-aggregation (Homo sapiens, UniProt P05067); assay: Inhibition of self-induced Aβ40 aggregation, thioflavin T fluorescence; assay type: biochemical; details: Aβ40 30 μM, 2% HFIP, ThT, mean ± SD (n = 3); for IC50: PBS pH 7.4, 2 h
T1 construct: self-aggregation of Aβ peptides 1–40 (Aβ40)
Procedure: Molecules able to inhibit simultaneously AChE and β-amyloid (Aβ) aggregation/neurotoxicity may have potential as drugs for the treatment of AD [14]. Herein, the new DHPPIQ derivatives were evaluated for the inhibitory effects on the self-aggregation of Aβ peptides 1–40 (Aβ40), through a test based on the measurement of thioflavin T (ThT) fluorescence. Quercetin, which is a strong inhibitor of in vitro Aβ self-aggregation, was used as a positive control.
Each compound was initially tested at a 100-μM concentration. […] […].
According to an already reported 96-well plate procedure, the test compounds at 100 μM were incubated with Aβ40 (30 μM) and 2% HFIP (1,1,1,3,3,3-hexafluoro-2-propanol), used as aggregation enhancer in PBS pH 7.4 for 2 h at room temperature. After the addition of ThT, the fluorescence was read at the 440/485 nm excitation/emission wavelength. Experiments were performed in triplicate, and the % inhibition values calculated as mean ± SD.

[4] = molecular target: T2, human butyrylcholinesterase (BChE) (Homo sapiens, UniProt P06276); assay: BChE inhibition, Ellman's method; assay type: biochemical; details: mean ± SD (n = 3), n.i. = no inhibition; for % inhibition hBChE: at 10 μM
T2 construct: BChE from human serum (50 U/mg); from tissue; host or cells: human serum
Procedure: as §3

[5] = tested on: HeLa (adenocarcinoma of the cervix uterus) cells; assay: Cytotoxicity, MTT assay, HeLa cells; assay type: cell-based; details: Homo sapiens, read-out: IC50, 50% inhibition of the cell population growth, 72 h, mean ± SD
Procedure: (§1) The cytotoxicity of the newly synthesized Schiff bases was evaluated in vitro in a panel of cultured tumor cells, assessing cell viability at scalar concentrations of the test compounds (≤500 μM) by MTT (i.e., 3-(4,5-dimethylthiazol-2-yl)-2,5-diphenyltetrazolium bromide) and Alamar Blue assays, using doxorubicin as the positive controls. Most of the compounds were tested against RD (rhabdomyosarcoma), HCT116 (intestinal carcinoma), HeLa (adenocarcinoma of the cervix uterus) and A549 (lung adenocarcinoma) cell lines, whereas five representative compounds of the subsets were tested also against K562 (chronic myelogenous leukemia) tumor cells.
(§2) The experiments were carried out in triplicate.

[6] = tested on: A549 (lung adenocarcinoma) cells; assay: Cytotoxicity, MTT assay, A549 cells; assay type: cell-based; details: Homo sapiens, read-out: IC50, 50% inhibition of the cell population growth, 72 h, mean ± SD
Procedure: as §1, §2

[7] = tested on: RD (rhabdomyosarcoma) cells; assay: Cytotoxicity, MTT assay, RD cells; assay type: cell-based; details: Homo sapiens, read-out: IC50, 50% inhibition of the cell population growth, 72 h, mean ± SD
Procedure: as §1, §2

[8] = tested on: HCT116 (intestinal carcinoma) cells; assay: Cytotoxicity, MTT assay, HCT116 cells; assay type: cell-based; details: Homo sapiens, HCT-116, read-out: IC50, 50% inhibition of the cell population growth, 72 h, mean ± SD
Procedure: as §1, §2

[9] = tested on: K562 (chronic myelogenous leukemia) cells; assay: Cytotoxicity, Alamar Blue (resazurin) assay, K562 cells; assay type: cell-based; details: Homo sapiens, read-out: IC50, 50% inhibition of the cell population growth, 72 h, mean ± SD
Procedure: as §1, §2

[10] = molecular target: T3, human MAO B (Homo sapiens, UniProt P27338); assay: biochemical; details: at 10 μM, mean ± SD (n = 3); read-out: % inhibition hMAO B
T3 construct: host or cells: baculovirus-infected insect cells (microsomes)
T3 sequence (P27338 1-520): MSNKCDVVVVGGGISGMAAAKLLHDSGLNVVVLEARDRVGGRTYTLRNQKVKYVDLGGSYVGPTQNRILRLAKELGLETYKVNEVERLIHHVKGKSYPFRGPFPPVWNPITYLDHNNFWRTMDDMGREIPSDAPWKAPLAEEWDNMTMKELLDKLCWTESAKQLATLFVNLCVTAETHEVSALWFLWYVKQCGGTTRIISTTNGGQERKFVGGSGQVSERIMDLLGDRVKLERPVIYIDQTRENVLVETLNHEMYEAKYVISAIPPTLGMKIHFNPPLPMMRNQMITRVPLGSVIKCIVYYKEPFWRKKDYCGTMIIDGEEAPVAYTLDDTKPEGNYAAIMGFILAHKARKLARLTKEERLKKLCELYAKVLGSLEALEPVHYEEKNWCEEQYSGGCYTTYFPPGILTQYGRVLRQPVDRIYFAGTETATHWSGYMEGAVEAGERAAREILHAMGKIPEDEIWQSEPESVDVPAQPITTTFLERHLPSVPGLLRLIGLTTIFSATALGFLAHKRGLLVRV
Procedure: (§4) The inhibition of human recombinant MAO A (250 U/mg) and B (59 U/mg; microsomes from baculovirus-infected insect cells) was evaluated using the reported 96-well plate technique [12]. on a Tecan Infinite M1000 Pro instrument (Cernusco s.N., Italy). […] After addition of the enzyme and 30 min of incubation, NaOH was added and the fluorescence read at the 310/400 excitation/emission wavelength.

[11] = molecular target: T4, human MAO A (Homo sapiens, UniProt P21397); assay: biochemical; details: human recombinant MAO A, kynuramine, mean ± SD (n = 3); read-out: IC50 hMAO A
T4 construct: host or cells: baculovirus-infected insect cells (microsomes)
T4 sequence (P21397 1-527): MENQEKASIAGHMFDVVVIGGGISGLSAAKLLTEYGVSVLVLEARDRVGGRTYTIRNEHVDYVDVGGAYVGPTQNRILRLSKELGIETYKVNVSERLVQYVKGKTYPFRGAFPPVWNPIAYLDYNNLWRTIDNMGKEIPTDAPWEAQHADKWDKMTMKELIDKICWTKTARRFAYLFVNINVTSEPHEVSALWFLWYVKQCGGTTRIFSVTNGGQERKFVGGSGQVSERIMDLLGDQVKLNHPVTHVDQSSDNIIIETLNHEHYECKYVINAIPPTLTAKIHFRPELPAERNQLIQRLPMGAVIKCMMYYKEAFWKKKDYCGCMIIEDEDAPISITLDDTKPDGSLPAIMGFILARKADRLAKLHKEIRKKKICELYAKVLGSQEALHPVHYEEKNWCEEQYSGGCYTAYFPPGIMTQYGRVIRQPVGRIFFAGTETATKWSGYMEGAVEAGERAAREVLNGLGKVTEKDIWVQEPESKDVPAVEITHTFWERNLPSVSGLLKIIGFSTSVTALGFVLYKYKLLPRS
Procedure: as §4

T1 sequence (P05067 672-711 limits assumed): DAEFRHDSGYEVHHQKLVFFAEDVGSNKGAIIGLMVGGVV
Chain of human acetylcholinesterase (AChE) (P22303 32-614): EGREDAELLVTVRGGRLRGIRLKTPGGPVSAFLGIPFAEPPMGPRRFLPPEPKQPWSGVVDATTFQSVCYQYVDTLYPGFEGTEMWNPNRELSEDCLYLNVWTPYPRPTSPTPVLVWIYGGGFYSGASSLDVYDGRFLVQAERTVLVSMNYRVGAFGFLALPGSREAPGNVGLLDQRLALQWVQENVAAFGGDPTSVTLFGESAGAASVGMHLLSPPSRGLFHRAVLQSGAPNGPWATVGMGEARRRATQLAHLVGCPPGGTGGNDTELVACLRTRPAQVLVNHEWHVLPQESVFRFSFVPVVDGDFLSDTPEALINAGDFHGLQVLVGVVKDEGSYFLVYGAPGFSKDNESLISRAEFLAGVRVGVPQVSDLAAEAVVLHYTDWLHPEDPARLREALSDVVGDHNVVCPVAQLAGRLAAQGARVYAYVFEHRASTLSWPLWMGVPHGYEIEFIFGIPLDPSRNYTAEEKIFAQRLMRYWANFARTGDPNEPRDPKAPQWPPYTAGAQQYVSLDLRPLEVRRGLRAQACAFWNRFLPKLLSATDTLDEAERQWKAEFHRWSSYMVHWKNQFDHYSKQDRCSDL
T2 sequence (P06276 29-602): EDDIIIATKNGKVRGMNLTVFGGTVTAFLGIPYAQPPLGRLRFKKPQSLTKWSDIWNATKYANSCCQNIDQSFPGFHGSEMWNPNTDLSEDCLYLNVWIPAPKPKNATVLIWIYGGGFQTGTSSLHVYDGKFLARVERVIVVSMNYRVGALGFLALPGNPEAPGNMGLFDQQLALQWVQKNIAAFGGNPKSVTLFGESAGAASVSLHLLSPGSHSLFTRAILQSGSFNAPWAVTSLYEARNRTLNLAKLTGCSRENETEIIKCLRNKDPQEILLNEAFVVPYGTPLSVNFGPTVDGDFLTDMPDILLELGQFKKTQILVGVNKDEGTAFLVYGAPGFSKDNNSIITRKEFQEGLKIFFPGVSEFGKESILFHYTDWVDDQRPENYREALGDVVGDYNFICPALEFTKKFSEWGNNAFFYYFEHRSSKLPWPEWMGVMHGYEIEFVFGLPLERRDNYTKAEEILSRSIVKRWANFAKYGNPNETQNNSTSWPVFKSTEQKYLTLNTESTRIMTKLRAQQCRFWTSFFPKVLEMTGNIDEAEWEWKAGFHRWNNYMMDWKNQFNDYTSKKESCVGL

| Structure (SMILES) | IC50 at 72 h [1] [µM] | inhibition at 10 µM [2] [%] | IC50 [3] [µM] | % inhibition hBChE [4] | IC50 [5] [µM] | IC50 [6] [µM] | IC50 [7] [µM] | IC50 [8] [µM] | inhibition mechanism on hAChE ([2]; Michaelis-Menten / Lineweaver-Burk plots) | Ki ([2]; complete kinetics, human AChE, read-out: inhibition constant (Ki) hAChE) [µM] | IC50 [2] | inhibition at 100 µM [3] [%] | IC50 [9] [µM] | inhibition at 10 µM [10] [%] | IC50 at 72 h ([1]; SH-SY5Y neuroblastoma cells) [µM] | IC50 [11] [µM] | inhibition at 10 µM ([4]; read-out: % inhibition hBChE) [%] |
| --- | --- | --- | --- | --- | --- | --- | --- | --- | --- | --- | --- | --- | --- | --- | --- | --- | --- |
| CC[C@@]1(O)C(=O)OCc2c1cc1n(c2=O)Cc2cc3ccccc3nc2-1 [Camptothecin, reference compound] | 0.272 ± 0.01 |  |  |  |  |  |  |  |  |  |  |  |  |  |  |  |  |
| COc1cc2c(cc1OC)-c1c(-c3ccc(Cl)cc3)c(C=O)cn1CC2 [Compound 3] |  | 32 ± 3 | 66 ± 2.2 | n.i. | 33 ± 4.5 | 38.6 ± 3.2 | 17.6 ± 3.2 | 22 ± 4 |  |  |  |  |  |  |  |  |  |
| COc1cc2c(cc1OC)-c1c(-c3ccc(Cl)cc3)c(C=O)c(-c3ccccc3)n1CC2 [Compound 4] |  |  |  | n.i. | 109 ± 5 | 105 ± 11 | 163 ± 20 | 252 ± 11 | noncompetitive/mixed-type mechanism | 3.58 ± 0.04 | 7.9 ± 0.13 µM | 35 ± 6 |  |  |  |  |  |
| COc1cc2c(cc1OC)-c1c(-c3ccc(F)cc3)c(C=O)cn1CC2 [Compound 5] |  | 33 ± 4 |  | n.i. | 33.8 ± 1 | 41.3 ± 2 | 17.8 ± 0.4 | 32.2 ± 0.3 |  |  |  |  |  |  |  |  |  |
| COc1cc2c(cc1OC)-c1c(-c3ccc(F)cc3)c(C=O)c(-c3ccccc3)n1CC2 [Compound 6] |  |  |  |  |  |  | 91.1 ± 10.9 | 261 ± 13 |  |  |  |  |  |  |  |  |  |
| CCOc1ccc(-c2c(/C=N/c3ccc(OC)cc3)cn3c2-c2cc(OCC)c(OCC)cc2CC3)cc1OCC [Compound 7, (E)-1-(1-(3,4-diethoxyphenyl)-8,9-diethoxy-5,6-dihydropyrrolo[2,1-a]isoquinolin-2-yl)-N-(4-methoxyphenyl)methanimine] |  |  | 78 ± 5.1 | n.i. | 34.9 ± 1.8 | 79.5 ± 6.8 | 132 ± 4 | 38.5 ± 6.6 |  |  | 20.2 ± 3.1 µM |  | 171 ± 12 |  |  |  |  |
| COc1ccc(/N=C/c2c(-c3ccc(Cl)cc3)c3n(c2-c2ccccc2)CCc2cc(OC)c(OC)cc2-3)cc1 [Compound 10, (E)-1-(1-(4-chlorophenyl)-8,9-dimethoxy-3-phenyl-5,6-dihydropyrrolo[2,1-a]isoquinolin-2-yl)-N-(4-methoxyphenyl)methanimine] |  | 35 ± 7 |  | n.i. |  |  |  | 211 ± 9 |  |  |  | 42 ± 5 |  |  |  |  |  |
| COc1ccc(/N=C/c2cn3c(c2-c2ccc(F)cc2)-c2cc(OC)c(OC)cc2CC3)cc1 [Compound 11, (E)-1-(1-(4-fluorophenyl)-8,9-dimethoxy-5,6-dihydropyrrolo[2,1-a]isoquinolin-2-yl)-N-(4-methoxyphenyl)methanimine] |  | 40 ± 2 | 54 ± 2.2 | n.i. | 87.2 ± 1.1 | 153 ± 2.2 | 145 ± 1 | 114 ± 4 |  |  |  |  |  | 22 ± 4 | 56.1 ± 2.4 | 18.1 ± 1.2 |  |
| CCOc1ccc(-c2c(/C=N/c3ccc(/N=C/c4cn5c(c4-c4ccc(OCC)c(OCC)c4)-c4cc(OCC)c(OCC)cc4CC5)cc3)cn3c2-c2cc(OCC)c(OCC)cc2CC3)cc1OCC [Compound 13a, (1E,1’E)-N,N’-(1,4-phenylene)bis(1-(1-[3,4-diethoxyphenyl]-8,9-diethoxy-5,6-dihydropyrrolo[2,1-a]isoquinolin-2-yl)methanimine)-1,4-diaminium dichloride] | 101 ± 6 |  | 42 ± 3 |  | 205 ± 10 | 240 ± 18 | 390 ± 19 | 103 ± 8 |  |  | 13 µM and 13.1 µM |  |  | 31 ± 3 |  | 12.3 ± 1.1 | 11 ± 3 |
| COc1cc2c(cc1OC)-c1c(-c3ccc(Cl)cc3)c(/C=N/c3ccc(/N=C/c4c(-c5ccc(Cl)cc5)c5n(c4-c4ccccc4)CCc4cc(OC)c(OC)cc4-5)cc3)c(-c3ccccc3)n1CC2 [Compound 15a, (1E,1’E)-N,N’-(1,4-phenylene)bis(1-(1-[4-chlorophenyl]-8,9-dimethoxy-3-phenyl-5,6-dihydropyrrolo[2,1-a]isoquinolin-2-yl)methanimine)-1,4-diaminium dichloride] |  | 25 ± 3 | 50 ± 6.3 | n.i. | 93.4 ± 2.6 | 120 ± 3.5 | 149 ± 3 | 102 ± 5 |  |  |  |  | 251 ± 17 |  |  |  |  |
| CCOc1ccc(-c2c(/C=N/CCCN(C)C)cn3c2-c2cc(OCC)c(OCC)cc2CC3)cc1OCC.Cl.Cl [Compound 16a, (E)-N^1-((1-[3,4-diethoxyphenyl]-8,9-diethoxy-5,6-dihydropyrrolo[2,1-a]isoquinolin-2-yl)methylene)-N^3,N^3-dimethylpropane-1,3-diaminium chloride] |  | 32 ± 2 |  | n.i. | 63.1 ± 3.1 | 85.1 ± 0.2 | 72.8 ± 4.6 | 60.5 ± 0.7 |  |  |  | 48 ± 4 |  |  |  |  |  |
| CCOc1ccc(-c2c(/C=N/CC/N=C/c3cn4c(c3-c3ccc(OCC)c(OCC)c3)-c3cc(OCC)c(OCC)cc3CC4)cn3c2-c2cc(OCC)c(OCC)cc2CC3)cc1OCC [Compound 19, (1E,1’E)-N,N’-(ethane-1,2-diyl)bis(1-(1-(3,4-diethoxyphenyl)-8,9-diethoxy-5,6-dihydropyrrolo[2,1-a]isoquinolin-2-yl)methanimine)] |  | 37 ± 2 |  | n.i. | 84 ± 1.3 |  | 65.1 ± 7.3 | 401 ± 8 |  |  |  | 48 ± 3 | 290 ± 12 |  |  |  |  |
| COc1cccc2c1C(=O)c1c(O)c3c(c(O)c1C2=O)C[C@@](O)(C(=O)CO)C[C@@H]3O[C@H]1C[C@H](N)[C@H](O)[C@H](C)O1 [Doxorubicin, reference compound] |  |  |  |  | 0.892 ± 0.013 | 0.38 ± 0.021 | 0.29 ± 0.021 | 0.142 ± 0.011 |  |  |  |  | 1.75 ± 0.06 |  |  |  |  |
